We go through 24 molecules from US20230399312A1, “SUBSTITUTED PYRIMIDINES AND METHODS OF USE” (THERAVANCE BIOPHARMA R&D IP, LLC, priority 2020, published 2023).

Assay [1] has as its target T1, recombinant human ALK5 (TGF-βR1) protein (Homo sapiens, UniProt P36897).
T1 construct: purchased Life Technologies PR9075A
T1 sequence (P36897 34-503): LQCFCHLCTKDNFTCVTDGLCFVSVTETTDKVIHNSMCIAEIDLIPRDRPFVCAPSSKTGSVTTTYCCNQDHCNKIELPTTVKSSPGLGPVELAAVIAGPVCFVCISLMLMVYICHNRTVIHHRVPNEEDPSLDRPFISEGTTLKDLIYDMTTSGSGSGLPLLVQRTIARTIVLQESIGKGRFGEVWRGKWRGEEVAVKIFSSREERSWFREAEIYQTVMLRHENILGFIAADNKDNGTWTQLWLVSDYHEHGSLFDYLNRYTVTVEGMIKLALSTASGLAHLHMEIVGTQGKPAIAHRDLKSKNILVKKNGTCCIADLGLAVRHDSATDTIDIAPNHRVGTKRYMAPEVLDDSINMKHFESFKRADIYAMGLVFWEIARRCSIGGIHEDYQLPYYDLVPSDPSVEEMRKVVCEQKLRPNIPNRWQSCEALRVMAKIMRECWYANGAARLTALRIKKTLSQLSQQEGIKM
As to the kind of experiment: Biochemical ALK5 (TGF-βR1) assay to measure pKi (LANCE Ultra ULight kinase assay). As to conditions: apparent pKi, converted from pIC50 by Cheng-Prusoff. Summed up: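 Dose-response series of each compound were preincubated with the kinase for 60 minutes at room temperature. Phosphorylation proceeded for 60 minutes at 37 °C after ATP addition, was quenched with EDTA, and was detected with a europium anti-phospho-Thr1342 antibody by TR-FRET; pKi was calculated from pIC50.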

For assay [2], the system named is TGF-β-stimulated SMAD3 phosphorylation in BEAS-2B cells. As to the kind of experiment: Cellular ALK5 potency assay, inhibition of TGF-β stimulated pSMAD3 formation in BEAS-2B cells. It counts as cell-based. As to conditions: Homo sapiens, pSMAD3, TGF-β 10 ng/mL, read-out: BEAS2B pIC50 (converted). The method, boiled down: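 Human lung epithelial BEAS-2B cells were preincubated 1 h at 37 °C with compound in HBSS/HEPES/1% BSA, then stimulated 30 min with 10 ng/mL TGF-β. pSMAD3 in lysates was quantified by AlphaLISA relative to untreated stimulated cells; reported as pIC50.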

For `Cc1cccc(-c2nccc(Nc3ccnc(Nc4cccc(NC(=O)C5CCN(CCN(C)C)CC5)c4)n3)n2)n1` [Compound 134, 1-[2-(dimethylamino)ethyl]-N-[3-[[4-[[2-(6-methyl-2-pyridyl)pyrimidin-4-yl]amino]pyrimidin-2-yl]amino]phenyl]piperidine-4-carboxamide], in assay [1], the Ki is 0.0398 to 0.316 nM. Moreover, in assay [2], the IC50 is 25.1 to 158 nM.
On the same counts, the results for `Cc1cccc(-c2nccc(Nc3ccnc(Nc4ccc(Cl)c(NC(=O)C5CCNCC5)c4)n3)n2)n1` [Compound 135, N-[2-chloro-5-[[4-[[2-(6-methyl-2-pyridyl)pyrimidin-4-yl]amino]pyrimidin-2-yl]amino]phenyl]piperidine-4-carboxamide] are 0.0398 to 0.316 nM and no more than 20 nM.
For `Cc1cccc(-c2nccc(Nc3ccnc(Nc4ccc(N5CCN(Cc6ccccn6)CC5)cc4)n3)n2)n1` [Compound 136, N4-[2-(6-methyl-2-pyridyl)pyrimidin-4-yl]-N2-[4-[4-(2-pyridylmethyl)piperazin-1-yl]phenyl]pyrimidine-2,4-diamine], in that order: 0.0398 to 0.316 nM and 25.1 to 158 nM.
On the same counts, the results for `CNC1CCN(c2ccc(Nc3nccc(Nc4ccnc(-c5cc(Cl)ccc5F)n4)n3)cc2)CC1` [Compound 137, N4-[2-(5-chloro-2-fluoro-phenyl)pyrimidin-4-yl]-N2-[4-[4-(methylamino)-1-piperidyl]phenyl]pyrimidine-2,4-diamine] are 0.0398 to 0.316 nM and 25.1 to 158 nM.
In the case of `Cc1cccc(-c2nccc(Nc3ccnc(Nc4ccc(CN5CCCC(C(=O)OC6CNC6)C5)cc4)n3)n2)n1` (stereo not drawn) [Compound 138, azetidin-3-yl 1-[[4-[[4-[[2-(6-methyl-2-pyridyl)pyrimidin-4-yl]amino]pyrimidin-2-yl]amino]phenyl]methyl] piperidine-3-carboxylate], in assay [1], the Ki is 0.0398 to 0.316 nM. The IC50 in assay [2] is 25.1 to 158 nM.
On the same counts, the results for `Cc1cccc(-c2nccc(Nc3ccnc(Nc4ccc(CN5CCC[C@@H](C(=O)O[C@H]6CCN(C)C6)C5)cc4)n3)n2)n1` [Compound 139, [(3S)-1-methylpyrrolidin-3-yl] (3R)-1-[[4-[[4-[[2-(6-methyl-2-pyridyl)pyrimidin-4-yl]amino]pyrimidin-2-yl]amino]phenyl]methyl] piperidine-3-carboxylate] are 0.0398 to 0.316 nM and no more than 20 nM.
On the same counts, the results for `Cc1cccc(-c2nccc(Nc3ccnc(Nc4nc(C(=O)NCC5(CO)CNC5)cs4)n3)n2)n1` [Compound 140, N-[[3-(hydroxymethyl)azetidin-3-yl]methyl]-2-[[4-[[2-(6-methyl-2-pyridyl)pyrimidin-4-yl]amino]pyrimidin-2-yl]amino]thiazole-4-carboxamide] are 0.0398 to 0.316 nM and 25.1 to 158 nM.
On the same counts, the results for `Cc1cccc(-c2nccc(Nc3ccnc(Nc4cccc(CN5CCOCC5)c4)n3)n2)n1` [Compound 141, N4-[2-(6-methyl-2-pyridyl)pyrimidin-4-yl]-N2-[3-(morpholinomethyl)phenyl] pyrimidine-2,4-diamine] are 0.0398 to 0.316 nM and 25.1 to 158 nM.
`Cc1cccc(-c2nccc(Nc3ccnc(Nc4cc(C(=O)OCC5CNC5)cs4)n3)n2)n1` [Compound 142, azetidin-3-ylmethyl 5-((4-((2-(6-methylpyridin-2-yl)pyrimidin-4-yl)amino)pyrimidin-2-yl)amino)thiophene-3-carboxylate]: the Ki in assay [1] is 0.0398 to 0.316 nM. Also, in assay [2], the IC50 was 25.1 to 158 nM.
As to `Cc1cccc(-c2nccc(Nc3ccnc(Nc4ccc(N5C[C@@H](C)N[C@@H](C)C5)cc4)n3)n2)n1` [Compound 143, N4-[2-(6-methyl-2-pyridyl)pyrimidin-4-yl]-N2-[4-[rac-(3S,5R)-3,5-dimethylpiperazin-1-yl]phenyl]pyrimidine-2,4-diamine], the Ki in assay [1] is 0.0398 to 0.316 nM. Moreover, the IC50 in assay [2] is 25.1 to 158 nM.
In the case of `Cc1cccc(-c2nccc(Nc3ccnc(Nc4ccc(N5CCCC(C(=O)O[C@H]6CCNC6)C5)cc4)n3)n2)n1` (stereo partly drawn) [Compound 144, [(3S)-pyrrolidin-3-yl] 1-[4-[[4-[[2-(6-methyl-2-pyridyl)pyrimidin-4-yl]amino]pyrimidin-2-yl]amino]phenyl]piperidine-3-carboxylate], the Ki in assay [1] is no more than 0.0316 nM. In addition, the IC50 in assay [2] is 25.1 to 158 nM.
For the molecule `Cc1cccc(-c2nccc(Nc3ccnc(Nc4cccc(NC(=O)C5CCN(C)CC5)c4)n3)n2)n1` [Compound 145, 1-methyl-N-[3-[[4-[[2-(6-methyl-2-pyridyl)pyrimidin-4-yl]amino]pyrimidin-2-yl]amino]phenyl]piperidine-4-carboxamide], in assay [1], the Ki was 0.0398 to 0.316 nM. The IC50 in assay [2] is 25.1 to 158 nM.
As to `Cc1cccc(-c2nccc(Nc3ccnc(Nc4ccc(CCO)cc4)n3)n2)n1` [Compound 146, 2-[4-[[4-[[2-(6-methyl-2-pyridyl)pyrimidin-4-yl]amino]pyrimidin-2-yl]amino]phenyl]ethanol], the Ki in assay [1] is 0.398 to 3.16 nM. Also, the IC50 in assay [2] is 25.1 to 158 nM.
For `Cc1cccc(-c2nccc(Nc3ccnc(Nc4ccc(C(=O)OC5CCNCC5)cc4)n3)n2)n1` [Compound 147, 4-piperidyl 4-[[4-[[2-(6-methyl-2-pyridyl)pyrimidin-4-yl]amino]pyrimidin-2-yl]amino]benzoate], in that order: 0.0398 to 0.316 nM and 25.1 to 158 nM.
For `Cc1cccc(-c2nccc(Nc3ccnc(Nc4nc(C(=O)OC5CCNCC5)cs4)n3)n2)n1` [Compound 148, piperidin-4-yl 2-((4-((2-(6-methylpyridin-2-yl)pyrimidin-4-yl)amino)pyrimidin-2-yl)amino)thiazole-4-carboxylate], in that order: 0.398 to 3.16 nM and 25.1 to 158 nM.
Regarding `Cc1cccc(-c2nccc(Nc3ccnc(Nc4ccc(N5CCN(C(=O)CSC6CCOC6=O)CC5)cc4)n3)n2)n1` (stereo not drawn) [Compound 149, 3-[2-[4-[4-[[4-[[2-(6-methyl-2-pyridyl)pyrimidin-4-yl]amino]pyrimidin-2-yl]amino]phenyl]piperazin-1-yl]-2-oxo-ethyl] sulfanyltetrahydrofuran-2-one], the Ki in assay [1] was 0.0398 to 0.316 nM. Further, in assay [2], the IC50 is 25.1 to 158 nM.
On the same counts, the results for `Cc1cccc(-c2nccc(Nc3ccnc(Nc4ccc(NC(=O)C5CCN(C)CC5)cc4)n3)n2)n1` [Compound 150, 1-methyl-N-[4-[[4-[[2-(6-methyl-2-pyridyl)pyrimidin-4-yl]amino]pyrimidin-2-yl]amino]phenyl]piperidine-4-carboxamide] are 0.0398 to 0.316 nM and 25.1 to 158 nM.
`Cc1cccc(-c2nccc(Nc3ccnc(Nc4ccc(C5=CCC(N)CC5)cc4)n3)n2)n1` (stereo not drawn) [Compound 151, N2-[4-(4-aminocyclohexen-1-yl)phenyl]-N4-[2-(6-methyl-2-pyridyl)pyrimidin-4-yl]pyrimidine-2,4-diamine]: the Ki in assay [1] was 0.0398 to 0.316 nM. Also, in assay [2], the IC50 was 25.1 to 158 nM.
On the same counts, the results for `Cc1cccc(-c2nccc(Nc3ccnc(Nc4ccc(CN5CC(C(=O)O[C@@H]6CCNC6)C5)cc4)n3)n2)n1` [Compound 152, [(3R)-pyrrolidin-3-yl] 1-[[4-[[4-[[2-(6-methyl-2-pyridyl)pyrimidin-4-yl]amino]pyrimidin-2-yl]amino]phenyl]methyl] azetidine-3-carboxylate] are 0.0398 to 0.316 nM and 25.1 to 158 nM.
Consider `Cc1cccc(-c2nccc(Nc3ccnc(Nc4ccc(N5CCN(C)CC5)cc4)n3)n2)n1` [Compound 153, N2-[4-(4-methylpiperazin-1-yl)phenyl]-N4-[2-(6-methyl-2-pyridyl)pyrimidin-4-yl]pyrimidine-2,4-diamine], for which the Ki in assay [1] is no more than 0.0316 nM. Besides, in assay [2], the IC50 was 25.1 to 158 nM.
On the same counts, the results for `Cc1cccc(-c2nccc(Nc3ccnc(Nc4cccc(NC(=O)C5CNC5)c4)n3)n2)n1` [Compound 154, N-[3-[[4-[[2-(6-methyl-2-pyridyl)pyrimidin-4-yl]amino]pyrimidin-2-yl]amino]phenyl]azetidine-3-carboxamide] are 0.0398 to 0.316 nM and 25.1 to 158 nM.
On the same counts, the results for `Cc1cccc(-c2nccc(Nc3ccnc(Nc4nc(CN5CCC[C@@H](C(=O)OCC6CNC6)C5)cs4)n3)n2)n1` [Compound 155, azetidin-3-ylmethyl (3R)-1-[[2-[[4-[[2-(6-methyl-2-pyridyl)pyrimidin-4-yl]amino]pyrimidin-2-yl]amino]thiazol-4-yl]methyl]piperidine-3-carboxylate] are 0.398 to 3.16 nM and 200 to 1260 nM.
On the same counts, the results for `CCOC(=O)Cc1cc(Nc2nccc(Nc3ccnc(-c4cccc(C)n4)n3)n2)ccc1N1CCNCC1` [Compound 156, ethyl 2-[5-[[4-[[2-(6-methyl-2-pyridyl)pyrimidin-4-yl]amino]pyrimidin-2-yl]amino]-2-piperazin-1-yl-phenyl]acetate] are 0.0398 to 0.316 nM and 25.1 to 158 nM.
As to `Cc1cccc(-c2nccc(Nc3ccnc(Nc4ccc(NCCN5CCNCC5)cc4)n3)n2)n1` [Compound 157, N4-[2-(6-methyl-2-pyridyl)pyrimidin-4-yl]-N2-[4-(2-piperazin-1-ylethylamino)phenyl]pyrimidine-2,4-diamine], the Ki in assay [1] was 0.0398 to 0.316 nM. Besides, the IC50 in assay [2] is 200 to 1260 nM.
